Our source for the EC1.5 and Emax values is patent publication US20110077248A1, “IMIDAZOPYRIDINE AND RELATED ANALOGS AS SIRTUIN MODULATORS” (Sirtris Pharmaceuticals, Inc., priority 2008, published 2011).

The target of the assay is T1, SIRT1 (Homo sapiens, UniProt Q96EB6).
T1 construct: His-tag (N); made in house; host or cells: E. coli BL21(DE3), T7-promoter vector
T1 sequence (Q96EB6 1-747): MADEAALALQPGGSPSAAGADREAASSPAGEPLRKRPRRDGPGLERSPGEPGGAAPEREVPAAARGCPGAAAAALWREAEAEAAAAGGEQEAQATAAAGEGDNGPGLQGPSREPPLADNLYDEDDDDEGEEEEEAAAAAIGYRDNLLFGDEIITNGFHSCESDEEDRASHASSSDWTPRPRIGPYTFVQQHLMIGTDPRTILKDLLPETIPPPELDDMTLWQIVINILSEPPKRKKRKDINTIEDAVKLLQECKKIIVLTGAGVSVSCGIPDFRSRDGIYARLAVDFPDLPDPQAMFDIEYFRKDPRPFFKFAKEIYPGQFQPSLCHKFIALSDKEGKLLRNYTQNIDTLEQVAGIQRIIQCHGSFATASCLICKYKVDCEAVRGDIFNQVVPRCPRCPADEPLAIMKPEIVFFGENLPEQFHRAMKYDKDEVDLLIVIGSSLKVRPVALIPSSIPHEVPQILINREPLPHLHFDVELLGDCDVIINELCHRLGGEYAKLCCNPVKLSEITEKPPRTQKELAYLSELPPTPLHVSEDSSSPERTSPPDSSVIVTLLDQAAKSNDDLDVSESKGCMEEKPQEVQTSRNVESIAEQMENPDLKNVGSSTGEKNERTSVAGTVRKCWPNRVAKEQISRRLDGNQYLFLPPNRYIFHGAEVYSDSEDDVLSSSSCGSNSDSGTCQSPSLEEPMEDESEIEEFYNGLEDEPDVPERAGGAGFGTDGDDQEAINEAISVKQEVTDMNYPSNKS
As to the kind of experiment: Mass spectrometry based assay for modulators of SIRT1 activity (deacetylation of p53-based acetylated peptide). Type of assay: biochemical. The settings on record: for EC1.5: concentration of test compound that results in 150% activation of SIRT1, 0.5 μM peptide substrate, 120 μM βNAD+, 10 nM SIRT1, 25 min, 25° C.; for Emax: percent maximum fold activation of SIRT1. In short, it runs like this: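 Reaction: 10 nM His-tagged human SIRT1 (E. coli-expressed) with 0.5 μM 5TMR-labelled acetylated p53-derived peptide and 120 μM NAD+, 25 min at 25 °C, pH 8 Tris-acetate buffer; formic acid quench. Deacetylation quantified by mass spectrometry against a DMSO control; EC1.5 = concentration giving 150% activation.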

`O=C(Nc1cccc(CN2CCOCC2)n1)c1cccn2cc(-c3ccc(C(F)F)cc3)nc12` [Compound 205]: the EC1.5 result is on record as “A (EC1.5<1.0 uM)” and the maximal effect (Emax) was over 200%.
As to `O=C(Nc1nccs1)c1cccn2cc(-c3cccc(C(F)F)c3)nc12` [Compound 206], the EC1.5 result is “B (EC1.5 1-25 uM)” and the Emax is under 200%.
Regarding `O=C(Nc1ccccn1)c1cccn2cc(-c3cccc(C(F)F)c3)nc12` [Compound 207], the EC1.5 entry is recorded as “A (EC1.5<1.0 uM)” and the Emax was under 200%.
On the same counts, the results for `O=C(Nc1nc(CN2CCOCC2)cs1)c1cccn2cc(-c3cccc(C(F)F)c3)nc12` [Compound 208] are “A (EC1.5<1.0 uM)” and over 200%.
For the compound `O=C(Nc1cccc(CN2CCOCC2)n1)c1cccn2cc(-c3cccc(C(F)F)c3)nc12` [Compound 209], the EC1.5 entry is given as “A (EC1.5<1.0 uM)” and the Emax is over 200%.
On the same counts, the results for `Cc1ccc(-c2nc3c(C(=O)Nc4nccs4)cccn3n2)cn1` [Compound 210, 2-(6-methylpyridin-3-yl)-N-(thiazol-2-yl)-[1,2,4]triazolo[1,5-a]pyridine-8-carboxamide] are “C (EC1.5>25 uM)” and under 200%.
For `Cc1ccc(-c2nc3c(C(=O)Nc4ccccn4)cccn3n2)cn1` [Compound 211], the EC1.5 result is “C (EC1.5>25 uM)” and the Emax was under 200%.
As for `Cc1ccc(-c2nc3c(C(=O)Nc4nc(CN5CCOCC5)cs4)cccn3n2)cn1` [Compound 212], the EC1.5 entry was “B (EC1.5 1-25 uM)” and the Emax is under 200%.
Consider `Cc1ccc(-c2nc3c(C(=O)Nc4cccc(CN5CCOCC5)n4)cccn3n2)cn1` [Compound 213], for which the EC1.5 entry is recorded as “B (EC1.5 1-25 uM)” and the maximal effect (Emax) was over 200%.
`Cc1cc(-c2nc3c(C(=O)Nc4nccs4)cccn3n2)ccn1` [Compound 214, 2-(2-methylpyridin-4-yl)-N-(thiazol-2-yl)-[1,2,4]triazolo[1,5-a]pyridine-8-carboxamide]: the EC1.5 result is given as “B (EC1.5 1-25 uM)” and the maximal effect (Emax) is over 200%.
On to `Cc1cc(-c2nc3c(C(=O)Nc4ccccn4)cccn3n2)ccn1` [Compound 215], for which the EC1.5 result is reported as “B (EC1.5 1-25 uM)” and the Emax is over 200%.
As for `Cc1cc(-c2nc3c(C(=O)Nc4nc(CN5CCOCC5)cs4)cccn3n2)ccn1` [Compound 216], the EC1.5 result is “B (EC1.5 1-25 uM)” and the maximum response (Emax) is over 200%.
In the case of `Cc1cc(-c2nc3c(C(=O)Nc4cccc(CN5CCOCC5)n4)cccn3n2)ccn1` [Compound 217], the EC1.5 entry is “B (EC1.5 1-25 uM)” and the Emax is over 200%.
Take `O=C(Nc1ccc(CCN2CCCC2)cc1)c1cccn2cc(-c3ccc(F)cc3C(F)(F)F)nc12` [Compound 218]: the EC1.5 entry was “C (EC1.5>25 uM)” and the Emax was under 200%.
`O=C(Nc1nccs1)c1cccn2nc(-c3ccc(N4CCOCC4)cc3C(F)(F)F)nc12` [Compound 219, 2-(4-morpholino-2-(trifluoromethyl)phenyl)-N-(thiazol-2-yl)-[1,2,4]triazolo[1,5-a]pyridine-8-carboxamide]: the EC1.5 result is given as “A (EC1.5<1.0 uM)” and the Emax is over 200%.
Regarding `O=C(Nc1ccccn1)c1cccn2nc(-c3ccc(N4CCOCC4)cc3C(F)(F)F)nc12` [Compound 220], the EC1.5 result is “A (EC1.5<1.0 uM)” and the Emax is over 200%.
In the case of `O=C(Nc1nccs1)c1cccn2nc(-c3cc(N4CCOCC4)ccc3C(F)(F)F)nc12` [Compound 221, 2-(5-morpholino-2-(trifluoromethyl)phenyl)-N-(thiazol-2-yl)-[1,2,4]triazolo[1,5-a]pyridine-8-carboxamide], the EC1.5 entry was “A (EC1.5<1.0 uM)” and the Emax is over 200%.
In the case of `O=C(Nc1ccccn1)c1cccn2nc(-c3cc(N4CCOCC4)ccc3C(F)(F)F)nc12` [Compound 222], the EC1.5 entry was “A (EC1.5<1.0 uM)” and the maximal response (Emax) was over 200%.

By Emax is commonly meant the size of the effect at its maximum, as opposed to the concentration needed.
